Results: patent publication US20080139842A1, “Medicament for preventive and/or therapeutic treatment of diseases with secretory disorder” (R&R INC., priority 2006, published 2008)

Experiments:
Type in all cases: in vivo, female NOD/Shi Jic mice
[1] = test system: submaxillary glands of NOD mice; test: Evaluation in NOD mice: histopathological evaluation of submaxillary glands (Sjoegren's syndrome model); settings: 1 mg/kg mixed in feed over 19 weeks, N = 6, score 0 no lesion to 3 severe, control group 1.7
Source text: (§1) NOD mice have been used as spontaneous type I diabetes and Sjoegren's syndrome model animals. Lymphocyte infiltration lesions similar to those of type I diabetes are developed in the pancreatic islets of Langerhans, and lymphocyte infiltration lesions similar to those of Sjoegren's syndrome are developed in the salivary glands (Eur. J. Immunol., 28, pp. 3336-3345, 1998). To female NOD/Shi Jic mice at 6 weeks of age, tamibarotene (Am80, 4-[(5,6,7,8-tetrahydro-5,5,8,8-tetramethyl-2-naphthalenyl)carbamoyl]benzoic acid) was administered over 19 weeks by mixing it in feed. During the test period, urinalysis was conducted once every week to measure urinary sugar. Test paper for urinalyses, Pre Test 3aII (Wako Pure Chemical Industries), was immersed in mouse fresh urine, and when a determined glucose value was 2,000 mg/dl or higher, the mouse was judged to be with diabetes. When the mice gave a sign of physical agony, they were euthanized. After the end of the administration period, pancreases and submaxillary glands were extracted from the euthanized mice, and fixed by immersion in a neutrally buffered 10% formalin fixation solution. From the fixed pancreases and submaxillary glands, hematoxin-eosin stained histopathological specimens were prepared, and the influence of tamibarotene on the pancreases and salivary glands was histopathologically evaluated. […]

[2] = test system: pancreatic islets of Langerhans of NOD mice; test: Evaluation in NOD mice: histopathological evaluation of pancreases (islets of Langerhans); settings: 1 mg/kg mixed in feed over 19 weeks, N = 6; for Pancreatic La islet lymphocyte infiltration score (average): score 0 no lesion, 1 slight, 2 moderate, 3 severe, control group 2.7
Source text: NOD mice have been used as spontaneous type I diabetes and Sjoegren's syndrome model animals. Lymphocyte infiltration lesions similar to those of type I diabetes are developed in the pancreatic islets of Langerhans, and lymphocyte infiltration lesions similar to those of Sjoegren's syndrome are developed in the salivary glands (Eur. J. Immunol., 28, pp. 3336-3345, 1998). To female NOD/Shi Jic mice at 6 weeks of age, tamibarotene (Am80, 4-[(5,6,7,8-tetrahydro-5,5,8,8-tetramethyl-2-naphthalenyl)carbamoyl]benzoic acid) was administered over 19 weeks by mixing it in feed. During the test period, urinalysis was conducted once every week to measure urinary sugar. Test paper for urinalyses, Pre Test 3aII (Wako Pure Chemical Industries), was immersed in mouse fresh urine, and when a determined glucose value was 2,000 mg/dl or higher, the mouse was judged to be with diabetes. When the mice gave a sign of physical agony, they were euthanized. After the end of the administration period, pancreases and submaxillary glands were extracted from the euthanized mice, and fixed by immersion in a neutrally buffered 10% formalin fixation solution. From the fixed pancreases and submaxillary glands, hematoxin-eosin stained histopathological specimens were prepared, and the influence of tamibarotene on the pancreases and salivary glands was histopathologically evaluated. For each of the tamibarotene-administered group and the control group, 6 mice were used.
The results are indicated by numbers of urinary sugar positive mice, scores for destruction of the pancreatic islets of Langerhans (henceforth occasionally abbreviated as “Pancreatic La islet”) associated with lymphocyte infiltration (Pancreatic La islet lymphocyte infiltration score), scores for decrease in number of the pancreatic islets of Langerhans (Pancreatic La islet number score), and submaxillary gland lymphocyte infiltration scores. The scores were determined according to the following criteria.
0: No lesion was observed

[3] = test system: NOD mice (spontaneous type I diabetes model); test: Evaluation in NOD mice: weekly urinalysis for urinary sugar (diabetes onset); settings: 1 mg/kg mixed in feed over 19 weeks from 6 weeks of age, N = 6, positive = urinary glucose 2,000 mg/dl or higher, control group 2/6
Source text: as §1

CC1(C)CCC(C)(C)c2cc(NC(=O)c3ccc(C(=O)O)cc3)ccc21 [Tamibarotene, 4-[(5,6,7,8-tetrahydro-5,5,8,8-tetramethyl-2-naphthalenyl)carbamoyl]benzoic acid]
Submaxillary gland lymphocyte infiltration score (average) [1]: 0.8
Submaxillary gland lymphocyte infiltration score (average) ([1]; listed as tamibarotene): reduced
Pancreatic La islet lymphocyte infiltration score (average) [2]: 1.7
Pancreatic La islet lymphocyte infiltration score (average) ([2]; listed as tamibarotene): apparently reduced
Pancreatic La islet number score (average) ([2]; score for decrease in number of islets, score 0 no lesion to 3 severe, control group 1): 0
Urinary sugar positive mice [3]: 0/6
Urinary sugar positive mice ([3]; listed as tamibarotene): no urinary sugar positive mouse was observed
